According to patent US20070087376A1, “Splice variants of pre-mRNA transcripts as biomarkers in idiopathic neurodegenerative diseases” (priority 2004, published 2007):

Key:
[1] = test system: NDUFS4 splice variants (NDUFS4 and NDUFS4-SV3 mRNA); test: NDUFS4 splice variant mRNA levels in MPTP-treated mice, RT-PCR; format: in vivo, mouse; conditions: chronic MPTP treatment
Excerpt: (§1) Mice were then euthanized either at 3 days or 3 weeks after treatment. Two time periods were selected in order to characterizing splicing events in the blood over time. Controls for the acute group include mice treated with saline and, for the chronic experiments, mice treated with probenecid or saline.
(§2) Blood specimens for assaying RNA from the mice described in Example 1 above were obtained as follows. Mice were sacrificed by cervical dislocation and the heart lacerated to release the blood. Approximately 50 μl of 0.05 M EDTA, pH 8.0 was added to the chest cavity to prevent the blood from coagulating. Blood was collected in a sterile 1 ml syringe that was initially rinsed in 0.50 M EDTA pH 8.0.
(§3) RNA from blood samples obtained as described in Example 2 was separated on a 1.8% agarose gel and stained with 5 μl of ethidium bromide (10 mg/ml stock) diluted into 10 ml of a TAE buffer (pH 8.5 40 mM Tris.acetate, 2 mM Na2EDTA.2H2O. After staining, the RNA was visualized on a UV light box and the 18S RNA band was quantified. The image was captured using a Kodak EDAS290 system (Kodak, Rochester, N.Y.) and the Kodak 1D Image Analysis software (Kodak, Rochester, N.Y.) was used to quantify. Other similar cameras and analysis softwares will also work.
(§4) Splice variant mRNA was assayed using reverse transcriptase polymerase chain reactions (RT-PCR) as described in U.S. patent application Ser. No.: 11/215,842. PCR conditions for amplification of FosB, RGS9, AchE, Ania6 and NDUFS4 are the same as disclosed in U.S. patent application Ser. No.: 11/215,842 except different kits were used for FosB and RGS9 compared to the other 3 transcripts.
• 1. 95° C. 8 minutes • 2. 95° C. 30 seconds • 3. 57° C. 30 seconds • 4. 72° C. 30 seconds • 5. Repeat from step 2 35 times • 6. 72° C. 10 minutes RGS9 (SYBR green, Applied Biosystems, Foster City, Calif.) • 1. 95° C. 8 minutes • 2. 95° C. 30 seconds • 3. 54° C. 30 seconds • 4. 72° C. 30 seconds • 5. Repeat from step 2 35 times • 6. 72° C. 10 minutes AChE (go Taq Green, Promega, Madison, Wis.) • 1. 95° C. 5 minutes • 2. 95° C. 30 seconds • 3. 61° C. 30 seconds • 4. 72° C. […]

[2] = test system: AChE splice variants (AChE-R and AChE-S mRNA); test: AChE splice variant mRNA levels in blood of MPTP-treated mice, RT-PCR; format: in vivo, mouse
Excerpt: as §1, §2, §3, §4
• 1. 95° C. 8 minutes • 2. 95° C. 30 seconds • 3. 57° C. 30 seconds • 4. 72° C. 30 seconds • 5. Repeat from step 2 35 times • 6. 72° C. 10 minutes RGS9 (SYBR green, Applied Biosystems, Foster City, Calif.) • 1. 95° C. 8 minutes • 2. 95° C. 30 seconds • 3. 54° C. 30 seconds • 4. 72° C. 30 seconds • 5. Repeat from step 2 35 times • 6. 72° C. 10 minutes AChE (go Taq Green, Promega, Madison, Wis.) • 1. 95° C. 5 minutes • 2. 95° C. 30 seconds • 3. 61° C. 30 seconds • 4. 72° C. 30 seconds • 5. Repeat from step 2 30 times • 6. 72° C. 5 minutes NDUFS4 (go Taq Green, Promega, Madison, Wis.) • 1. 95° C. 5 minutes • 2. 95° C. 30 seconds • 3. 64° C. 30 seconds • 4. 72° C. 30 seconds • 5. Repeat from step 2 30 times • 6. 72° C. 5 minutes Ania (go Taq Green, Promega, Madison, Wis. • 1. 95° C. 5 minutes • 2. 95° C. 30 seconds • 3. 57° C. 30 seconds • 4. 72° C. 30 seconds • 5. Repeat from step 2 35 times • 6. 72° C. 5 minutes Primers used in the PCR Assays: […]
We investigated whether the amount of the splice variants of acetylcholinesterase (AChE) changed after MPTP toxin treatment. AChE hydrolyzes acetylcholine (ACh) and thereby functions to terminate Ach-mediated neurotransmission. In many neuropathologies, the characteristics of AChE are modified in the central nervous system. We looked at the AChE-S and ACHE-R splice variants. The AChE-S mRNA produces the canonical synaptic tetrameric form of the enzyme. AChE-S is formed by skipping exon 5 such that the final mRNA is composed of exons 1-4 and exon 6 (FIG. 5). The protein produced from this transcript has a cysteine-containing carboxyl-terminus that allows for the formation of the tetramer. AChE-R, produces a read-through transcript in which a downstream splice donor is spliced to the intron 4 3′ splice site such that exon 5 is included in the mRNA (FIG. 6). This produces a protein with a different carboxyl-terminus than the synaptic form. […]

[3] = test system: FosB splice variants (FosB and ΔFosB mRNA); test: FosB splice variant mRNA levels in blood of MPTP-treated (Parkinsonian) mice, RT-PCR; format: in vivo, mouse; conditions: vs vehicle
Excerpt: as §1, §2
as §3, with “work. […]” for “work.”

[4] = test system: RGS9 splice variants (RGS9-1 and RGS9-2 mRNA); test: RGS9 splice variant mRNA levels in blood of MPTP-treated mice, RT-PCR; format: in vivo, mouse
Excerpt: as §1, §2
as §3, with “work. […]” for “work.”

[5] = test system: Ania6 splice variants (Ania6 and Ania6a mRNA); test: Ania6 splice variant mRNA levels in blood of MPTP-treated mice, RT-PCR; format: in vivo, mouse; conditions: chronic MPTP treatment
Excerpt: as §1, §2
as §3, with “work. […]” for “work.”

[6] = test system: transcripts that have splice variants; conditions: mptp study, cited from earlier work
[7] = chronic MPTP treatment, 3 days and 3 weeks after

CN1CC=C(c2ccccc2)CC1 [MPTP, 1-methyl-4-phenyl-1,2,3,6-tetrahydropyridine]
NDUFS4 mRNA/18S RNA [1]: decreases | NDUFS4-SV3 mRNA/18S RNA ([1]; 3 days and 3 weeks after): decreases after chronic MPTP treatment and remains lower for 3 weeks | NDUFS4-SV3 mRNA/NDUFS4 mRNA ([1]; 3 days and 3 weeks after): decreases after chronic MPTP treatment and remains lower for 3 weeks | AChE-R mRNA/18S RNA ([2]; acute MPTP treatment): increases | AChE-R mRNA/AChE-S mRNA ([2]; acute MPTP treatment): increases | AChE-R mRNA/AChE-S mRNA ([2]; chronic MPTP treatment): decreases | AChE-S mRNA/18S RNA ([2]; chronic MPTP treatment): increases | AChE-R mRNA/18S RNA [2, 7]: decreases and remains lower for 3 weeks | FosB mRNA/18S RNA ([3]; acute MPTP treatment (20 mg/kg, 4 times, every 2 hours), euthanized 3 days later): decreases | ΔFosB mRNA/18S RNA ([3]; chronic MPTP (25 mg/kg s.c.) and probenecid, twice each week for 5 weeks): decreases | RGS9-2 mRNA/18S RNA ([4]; acute MPTP treatment): decreases | RGS9-2 mRNA/RGS9-1 [4, 7]: decreases after chronic MPTP treatment and remains lower for 3 weeks | Ania6a mRNA/18S RNA [5]: increases | Ania6 mRNA/18S RNA ([5]; 3 days and 3 weeks after): decreases after chronic MPTP treatment and remains lower for 3 weeks | Change of BAX M, isoform-a transcript ([6]; function Apoptosis): Up | Change of Cyclin B2 transcript ([6]; function Cell cycle): Down | Change of Alpha-synuclein transcript ([6]; function PD-associated): Up | Change of Ach N receptor transcript ([6]; function Receptors): Up | Change of IL-1 recept II transcript ([6]; function Receptors): Up | Change of IL-2 rp-G transcript ([6]; function Receptors): Up | Change of IL-10 transcript ([6]; function Receptors): Up | Change of Gtase transcript ([6]; function Stress): Down
